{"source": "patent US20240239786A1", "about": "“COMPOSITIONS AND METHODS FOR THE TREATMENT AND PREVENTION OF CANCER” (Yale University, priority 2021, published 2024)", "key": {"[1]": {"settings": "cited from earlier work"}, "PEO4 cells": {"system": "PEO4 cells", "test": "MTS cytotoxicity assay, sensitization to olaparib, PEO4", "assay_type": "cell-based", "settings": "30 μM, olaparib 72 hr", "procedure": "Cells were pre-treated with 30 μM DB4 for 1 hr and then treated with various concentrations of olaparib for 72 hr. Cell survival was determined by MTS cytotoxicity assay. Data are means±SD (N=3-4). […] EOB calculation was used to quantify the synergy of the combination of DB4 and various concentrations of olaparib in PEO1 or PEO4 cells as shown in FIG. 8A. EOB>0, synergism; EOB=0, additivity; EOB<0, antagonism. […] Cells were pre-treated with 30 μM DB4-F for 1 hr and then treated with various concentrations of olaparib for 72 hr. Cell survival was determined by MTS cytotoxicity assay. Data are means±SD (N=3-4). […] EOB calculation was used to quantify the synergy of the combination of DB4-F and various concentrations of olaparib in PEO1 or PEO4 cells as shown in FIG. 8B. EOB>0, synergism; EOB=0, additivity; EOB<0, antagonism. […] Cell survival was determined by MTS cytotoxicity assay. […] Caspase 3/7 activity was expressed as RLU per μg/μl protein. […] Caspase 3/7 activity was expressed as RLU per μg/μl protein. […] Cells were treated and caspase 3/7 activity was measured as described in FIG. 8G and FIG. 8H.\nIt was also examined whether DB4 sensitized BRCA-wild type EOC cells to a PARP inhibitor. BRCA2-mutated PEO1 and BRCA2-wild type PEO4 cells were treated with DB4 at 30 μM in combination with various concentrations of olaparib and cell survival was determined. […]"}}, "data": [{"smiles": "NC(=S)NN=Cc1ncccc1N", "note": "[triapine, 3-aminopyridine-2-carboxaldehyde-thiosemicarbazone, reference compound]", "values": [{"measurement": "side effects", "setting": "[1]; patients", "value": "methemoglobinemia and dyspnea"}, {"measurement": "clinical response rates", "setting": "[1]; phase I/II studies", "value": "more than 80%"}]}, {"smiles": "C=CCn1c(SCc2cccc(Cl)c2)nnc1C1CCN(Cc2nc3ccccc3s2)CC1", "note": "[DB4, 2-[(4-{4-allyl-5-[(3-chlorobenzyl)thio]-4H-1,2,4-triazol-3-yl}-1-piperidinyl)methyl]-1,3-benzothiazole]", "values": [{"measurement": "sensitization to olaparib (cell survival)", "setting": "PEO4 cells", "value": "effectively sensitized"}]}]}
